# From ChEMBL document CHEMBL5576120, “Discovery and In Vivo Efficacy of AZ-PRMT5i-1, a Novel PRMT5 Inhibitor with High MTA Cooperativity” (J Med Chem, 2024)
# Assays:
# physchem [1] = conditions: buffer, pH 7.4
# Description: Lipophilicity, logD of compound at pH 7.4
# in vitro = conditions: human, Caco-2
# Description: Apparent permeability across apical to basal side of human Caco-2 cells at 10 uM
# [2] = Intrinsic clearance in rat hepatocytes assessed per million cells; assay type: ADME, cell-based, Hepatocyte; conditions: read-out: CLH
# physchem [3] = conditions: phosphate buffer, pH 7.4
# [4] = biological target: Protein arginine N-methyltransferase 5 (Homo sapiens, UniProt O14744)
# Chain of Protein arginine N-methyltransferase 5 (O14744 whole entry): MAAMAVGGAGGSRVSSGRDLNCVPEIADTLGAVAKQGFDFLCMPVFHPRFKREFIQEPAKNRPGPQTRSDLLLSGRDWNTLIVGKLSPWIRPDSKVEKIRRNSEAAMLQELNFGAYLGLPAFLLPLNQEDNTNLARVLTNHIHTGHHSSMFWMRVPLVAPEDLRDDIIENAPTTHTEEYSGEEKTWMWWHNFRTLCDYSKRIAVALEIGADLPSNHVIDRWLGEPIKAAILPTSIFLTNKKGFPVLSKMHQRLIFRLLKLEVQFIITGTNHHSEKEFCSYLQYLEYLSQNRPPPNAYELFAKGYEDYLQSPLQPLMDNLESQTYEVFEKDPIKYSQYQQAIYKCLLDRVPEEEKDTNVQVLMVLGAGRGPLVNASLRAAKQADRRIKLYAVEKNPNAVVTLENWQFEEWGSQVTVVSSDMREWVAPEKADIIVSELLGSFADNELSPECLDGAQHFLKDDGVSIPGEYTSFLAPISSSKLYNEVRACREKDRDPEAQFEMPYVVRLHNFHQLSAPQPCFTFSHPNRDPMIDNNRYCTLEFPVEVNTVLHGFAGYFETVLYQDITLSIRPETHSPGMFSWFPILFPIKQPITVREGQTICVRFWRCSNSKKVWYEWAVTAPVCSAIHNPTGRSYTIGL
# Description: Inhibition of PRMT5 in human HCT-116 cells with MTAP KO assessed as decrease in SMDA level incubated for 48 hrs by immunofluorescence analysis
# HCT-116 = assay: Cooperativity fold, ratio of IC50 for PRMT5 in human HCT-116 cells expressing wild-type MTAP assessed as decrease in SMDA level to IC50 for PRMT5 in human HCT-116 cells with MTAP KO assessed as decrease in SMDA level; assay type: cell-based
# [5] = Intrinsic clearance in human hepatocytes assessed per million cells; assay type: ADME, cell-based, Hepatocyte; conditions: read-out: CLH
# PRMT5/MEP50 complex [6] = biological target: T1, PRMT5/MEP50 complex (Homo sapiens, UniProt O14744); assay: biochemical
# T1 sequence (O14744 whole entry): as above
# T1 sequence (Q9BQA1 whole entry, further chain): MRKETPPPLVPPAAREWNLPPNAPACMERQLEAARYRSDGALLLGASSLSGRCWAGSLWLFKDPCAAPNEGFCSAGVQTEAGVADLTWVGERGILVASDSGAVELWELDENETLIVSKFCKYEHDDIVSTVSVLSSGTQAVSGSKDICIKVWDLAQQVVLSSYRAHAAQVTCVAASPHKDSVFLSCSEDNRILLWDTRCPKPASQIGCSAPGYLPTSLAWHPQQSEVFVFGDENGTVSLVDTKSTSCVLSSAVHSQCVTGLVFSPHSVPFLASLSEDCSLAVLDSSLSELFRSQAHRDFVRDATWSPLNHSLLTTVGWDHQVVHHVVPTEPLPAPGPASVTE
# Description: Inhibition of PRMT5 (1 to 637 residues)/MEP504 (2 to 342 residues)(unknown origin) expressed in baculovirus infected Sf21 insect cells using histone H4/SAM as substrate incubated for 5 hrs in presence of MTA by MTase Glo assay
# Lu-99 cell line [7] = assay: Antiproliferative activity against human Lu-99 cells incubated for 7 days; assay type: functional, cell-based; conditions: Lu-99, 168 h
# [8] = Antitumor activity against human PDX GA2254 cells xenografted in Balb/c nude mouse assessed as inhibition of SDMA level at 1 mg/kg, po bid measured for 21 days relative to control; assay type: functional; conditions: PDX GA2254, 504 h, time 21 day, read-out: TGI
# [9] = Antitumor activity against human PDX GA2254 cells xenografted in Balb/c nude mouse assessed as inhibition of SDMA level at 10 mg/kg, po bid measured for 21 days relative to control; assay type: functional; conditions: PDX GA2254, 504 h, time 21 day, read-out: TGI
# [10] = Toxicity in nude mouse xenografted with human Lu-99 cells assessed as body weight loss upto 100 mg/kg, po bid measured for 21 days; assay type: organism-based; conditions: in vivo, 504 h, time 21 day
# Lu-99 cell line [11] = assay: Antitumor activity against human Lu-99 cells xenografted in nude mouse assessed as tumor growth inhibition administered orally twice a day measured for 21 days; assay type: functional, cell-based; conditions: dose 1-10 mg/kg, route po, time 21.0 day
# [12] = Volume of distribution at steady state in CD-1 mouse at 1 mg/kg, po or 0.5 mg/kg, iv; assay type: ADME, organism-based; conditions: in vivo
# [13] = Half life in Wistar Han rat at 1 mg/kg, po or 0.5 mg/kg, iv; assay type: ADME, organism-based; conditions: in vivo
# Lu-99 cell line [14] = assay: Antitumor activity against human Lu-99 cells xenografted in nude mouse assessed as inhibition of SDMA level administered orally twice a day measured for 21 days; assay type: functional, cell-based; conditions: dose 1-10 mg/kg, route po, time 21.0 day
# [15] = Oral bioavailability in CD-1 mouse at 1 mg/kg; assay type: ADME, organism-based; conditions: in vivo
# [16] = Antitumor activity against human PDX GA2254 cells xenografted in Balb/c nude mouse assessed as inhibition of SDMA level at 50 mg/kg, po bid measured for 21 days relative to control; assay type: functional; conditions: PDX GA2254, 504 h, time 21 day, read-out: TGI
# [17] = Half life in CD-1 mouse at 1 mg/kg, po or 0.5 mg/kg, iv; assay type: ADME, organism-based; conditions: in vivo
# Lu-99 cell line [18] = assay: Antitumor activity against human Lu-99 cells xenografted in nude mouse at 100 mg/kg, po bid measured after 21 days relative to control; assay type: functional; conditions: Lu-99, 504 h, time 21 day, read-out: TGI
# [19] = Oral bioavailability at steady state in Wistar Han rat at 1 mg/kg; assay type: ADME, organism-based; conditions: in vivo
# [20] = Antitumor activity against human PDX GA2254 cells xenografted in Balb/c nude mouse at 10 mg/kg, po bid measured for 21 days relative to control; assay type: functional; conditions: PDX GA2254, 504 h, time 21 day, read-out: TGI
# [21] = Antitumor activity against human PDX GA2254 cells xenografted in Balb/c nude mouse assessed as tumor regression at 50 mg/kg, po bid measured for 21 days relative to control; assay type: functional; conditions: time 21 day
# Translocator protein = Translocator protein (Homo sapiens, UniProt P30536); assay: Inhibition of human TSPO
# Chain of Translocator protein (P30536 whole entry): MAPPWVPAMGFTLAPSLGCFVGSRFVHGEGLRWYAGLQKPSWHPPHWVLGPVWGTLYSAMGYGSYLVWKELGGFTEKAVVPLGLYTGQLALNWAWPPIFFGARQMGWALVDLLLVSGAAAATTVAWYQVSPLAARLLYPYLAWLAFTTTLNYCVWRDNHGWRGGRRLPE
# [22] = Volume of distribution at steady state in Wistar Han rat at 1 mg/kg, po or 0.5 mg/kg, iv; assay type: ADME, organism-based; conditions: in vivo
# Lu-99 cell line [23] = assay: Antitumor activity against human Lu-99 cells xenografted in nude mouse assessed as inhibition of SDMA level at 100 mg/kg, po bid measured after 21 days relative to control; assay type: functional; conditions: Lu-99, 504 h, time 21 day
# PRMT5/MEP50 complex [24] = biological target: T1, PRMT5/MEP50 complex; assay: biochemical; remark: listed apart in the source
# Description: Inhibition of PRMT5 (1 to 637 residues)/MEP504 (2 to 342 residues)(unknown origin) expressed in baculovirus infected Sf21 insect cells using histone H4/SAM as substrate incubated for 5 hrs by MTase Glo assay
# [25] = Unbound protein binding in rat plasma by equilibrium dialysis; assay type: ADME, cell-free
logD (physchem [1]),Papp A→B at 10 µM (in vitro) [×10⁻⁶ cm/s],hepatocyte CLint [2] [µL/min/1e6 cells],IC50 [4] [nM],SMILES,further results
2.2,27,22,240,Nc1ccc2ncc(CN3C(=O)c4cc(F)ccc4[C@]34CCN(Cc3ccc(F)cc3)C4=O)cc2n1,solubility at 24 h (physchem [3]): 55 µM; Ratio IC50 (HCT-116): 18
2.3,72,59,,Nc1ccc2oc(CN3C(=O)c4cc(F)ccc4[C@]34CCN(Cc3ccc(F)cc3)C4=O)cc2n1,solubility at 24 h (physchem [3]): 243 µM
1.8,1.4,7,4,COc1cc(N)nc2cc(CN3C(=O)c4cc(F)ccc4[C@]34CCN(Cc3ccc(F)cc3)C4=O)[nH]c12,solubility at 24 h (physchem [3]): 610 µM; Ratio IC50 (HCT-116): 7.2
2.9,56,15,,Nc1cc(C(F)F)c2[nH]c(CN3C(=O)c4cc(F)ccc4[C@]34CCN(Cc3ccc(F)cc3)C4=O)cc2n1,solubility at 24 h (physchem [3]): 86 µM
3.1,,246,,O=C1c2cc(F)ccc2[C@]2(CCN(Cc3ccc(F)cc3)C2=O)N1Cc1cc2ncccc2[nH]1,
2.5,31,12,140,Nc1ccc2cc(CN3C(=O)c4cc(F)ccc4[C@]34CCN(Cc3ccc(F)cc3)C4=O)[nH]c2n1,Ratio IC50 (HCT-116): 31; IC50 (PRMT5/MEP50 complex [6]): 9 nM
2.8,48,< 5,,Nc1nc2cc(CN3C(=O)c4cc(F)ccc4[C@]34CCN(Cc3ccc(F)cc3)C4=O)[nH]c2cc1F,IC50 (Lu-99 cell line [7]): 124 nM; inhibition in vivo at 1 mg/kg [8]: 51%; solubility at 24 h (physchem [3]): 8 µM; inhibition in vivo at 10 mg/kg [9]: 93%; Activity [10]: Non-Toxic; inhibition (Lu-99 cell line [11]): Dose-Dependent Effect; Vdss [12]: 2.1 L/kg; half-life [13]: 108 min; inhibition (Lu-99 cell line [14]): Dose-Dependent Effect; hepatocyte CLint [5]: < 1 µL/min/1e6 cells; bioavailability [15]: 101%; inhibition in vivo at 50 mg/kg [16]: 97%; half-life [17]: 204 min; inhibition in vivo at 100 mg/kg (Lu-99 cell line [18]): 71%; bioavailability [19]: 35%; inhibition in vivo at 10 mg/kg [20]: 33%; Activity [21]: 50%; Ki (Translocator protein): 610 nM; Vdss [22]: 2.4 L/kg; inhibition in vivo at 100 mg/kg (Lu-99 cell line [23]): 95%
2.2,2.7,13,,Nc1ccc2[nH]c(CN3C(=O)c4cc(F)ccc4[C@]34CCN(Cc3ccc(F)cc3)C4=O)cc2n1,solubility at 24 h (physchem [3]): 106 µM; Vdss [12]: 2.7 L/kg; half-life [13]: 30 min; hepatocyte CLint [5]: < 1 µL/min/1e6 cells; bioavailability [15]: 3%; half-life [17]: 53.4 min; Vdss [22]: 7.8 L/kg
2.8,,6,6400,O=C1c2cc(F)ccc2[C@]2(CCN(Cc3ccc(F)cc3)C2=O)N1Cc1cc2ccncc2[nH]1,Ratio IC50 (HCT-116): > 5; IC50 (PRMT5/MEP50 complex [6]): 370 nM
3.4,29,193,,O=C1c2cc(F)ccc2[C@]2(CCN(Cc3ccc(F)cc3)C2=O)N1Cc1cc2cccnc2[nH]1,
3.4,,188,,O=C1c2cc(F)ccc2[C@@]2(CCN(Cc3ccc(F)cc3)C2=O)N1Cc1cc2cccnc2[nH]1,
2.2,,21,4800,Cn1c(CN2C(=O)c3cc(F)ccc3[C@]23CCN(Cc2ccc(F)cc2)C3=O)cc2nc(N)ccc21,solubility at 24 h (physchem [3]): 110 µM; Ratio IC50 (HCT-116): > 5
2.4,,3,> 30000,O=C1c2cc(F)ccc2[C@]2(CCN(Cc3ccc(F)cc3)C2=O)N1Cc1cc2cnccc2[nH]1,IC50 (PRMT5/MEP50 complex [6]): 970 nM

# The next lines start with the molecule.
SMILES,logD (physchem [1]),Papp A→B at 10 µM (in vitro) [×10⁻⁶ cm/s],hepatocyte CLint [2] [µL/min/1e6 cells],IC50 [4] [nM],further results
O=C(NCc1ccc(F)cc1)C1c2ccccc2C(=O)N1Cc1cc2cccnc2[nH]1 (configuration not stated),3.3,90,131,,
O=C(NCc1ccc(F)cc1)C1c2ccccc2C(=O)N1Cc1cc2ncccc2[nH]1 (configuration not stated),3,,70,,
N#Cc1ccc2c(c1)C(C(=O)NCc1ccc(F)cc1)N(Cc1cnc(NC(=N)N)s1)C2=O (configuration not stated),2.1,,13,,
N=C(N)Nc1ncc(CN2C(=O)c3ccccc3C2C(=O)N(Cc2ccc(F)cc2)C2CC2)s1 (configuration not stated),2.6,,64,,
Nc1ccc2[nH]c(CN3C(=O)c4cc(F)ccc4[C@]34CCN(Cc3ccc(F)cc3)C4=O)nc2n1,,,5,1300,hepatocyte CLint [5]: < 1 µL/min/1e6 cells
N=C(N)Nc1ncc(CN2C(=O)c3cc(F)ccc3C2C(=O)NCc2ccc(F)cc2)s1 (configuration not stated),2.5,,13,,
N=C(N)Nc1nnc(CN2C(=O)c3ccccc3C2C(=O)NCc2ccc(F)cc2)s1 (configuration not stated),1.7,,23,,
N=C(N)Nc1cc(CN2C(=O)c3ccccc3C2C(=O)NCc2ccc(F)cc2)ccn1 (configuration not stated),0.9,,17,> 30000,IC50 (PRMT5/MEP50 complex [24]): 27000 nM; IC50 (PRMT5/MEP50 complex [6]): 2950 nM
COc1ccc2c(c1)C(=O)N(Cc1cnc(NC(=N)N)s1)C2C(=O)NCc1ccc(F)cc1 (configuration not stated),2.3,,22,380,Ratio IC50 (HCT-116): 7.7; IC50 (PRMT5/MEP50 complex [24]): 51 nM; IC50 (PRMT5/MEP50 complex [6]): 12 nM
COc1cccc2c1C(=O)N(Cc1cnc(NC(=N)N)s1)C2C(=O)NCc1ccc(F)cc1 (configuration not stated),1.9,,11,,
O=C(NCc1ccc(F)cc1)C1c2ccc(F)cc2C(=O)N1Cc1cc2ncccc2[nH]1 (configuration not stated),3.4,,112,,
N=C(N)Nc1ncc(CN2C(=O)c3ccccc3C2C(=O)NCc2ccc(F)cc2)s1 (configuration not stated),,,34,,half-life [13]: 66 min; bioavailability [19]: 2%; fraction unbound [25]: 0.19; Vdss [22]: 1.6 L/kg
CN(Cc1ccc(F)cc1)C(=O)C1c2ccccc2C(=O)N1Cc1cnc(NC(=N)N)s1 (configuration not stated),2,,84,,
CNC(=N)Nc1ncc(CN2C(=O)c3cc(F)ccc3C2C(=O)NCc2ccc(F)cc2)s1 (configuration not stated),2.7,14,19,,solubility at 24 h (physchem [3]): 8 µM; half-life [13]: 42.6 min; bioavailability [19]: 20%; Vdss [22]: 2.6 L/kg
O=C(NCc1ccc(F)cc1)C1c2ccc(F)cc2C(=O)N1Cc1cc2cccnc2[nH]1 (configuration not stated),3.2,,123,,
